Experimental data reported in patent US8431565B2 (priority 2007, dated 2013).

target: human CB1 receptor (hCB1) (Homo sapiens, UniProt P21554); type: cell-based
Sequence (P21554 whole entry): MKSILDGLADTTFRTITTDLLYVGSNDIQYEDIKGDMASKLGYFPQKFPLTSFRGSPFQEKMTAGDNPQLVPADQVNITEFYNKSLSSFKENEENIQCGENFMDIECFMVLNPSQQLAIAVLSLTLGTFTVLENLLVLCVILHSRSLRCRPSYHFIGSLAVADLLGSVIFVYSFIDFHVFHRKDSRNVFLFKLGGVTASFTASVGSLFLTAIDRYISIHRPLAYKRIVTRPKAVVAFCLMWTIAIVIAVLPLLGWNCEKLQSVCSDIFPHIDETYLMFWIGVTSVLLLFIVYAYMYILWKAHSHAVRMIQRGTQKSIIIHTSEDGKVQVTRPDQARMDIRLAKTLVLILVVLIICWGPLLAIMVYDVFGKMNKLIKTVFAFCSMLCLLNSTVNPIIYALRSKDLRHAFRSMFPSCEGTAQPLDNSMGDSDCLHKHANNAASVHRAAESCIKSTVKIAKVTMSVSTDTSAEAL

Row | Compound | EC50 [µM]
1 | CNC(=O)[C@@H](NC(=O)c1nc(-c2cccnc2Cl)n2c1CN(C)CCC2)C(C)(C)C [Compound 628, (S)-3-(2-chloropyridin-3-yl)-N-(3,3-dimethyl-1-(methylamino)-1-oxobutan-2-yl)-8-methyl-6,7,8,9-tetrahydro-5H-imidazo[1,5-a][1,4]diazepine-1-carboxamide] | > 10
2 | CNC(=O)[C@@H](NC(=O)c1nc(-c2ccc(C(F)(F)F)cc2C)n2c1CN(C)CCC2)C(C)(C)C [Compound 632, (S)-N-(3,3-dimethyl-1-(methylamino)-1-oxobutan-2-yl)-8-methyl-3-(2-methyl-4-(trifluoromethyl)phenyl)-6,7,8,9-tetrahydro-5H-imidazo[1,5-a][1,4]diazepine-1-carboxamide] | > 10
3 | CNC(=O)[C@@H](NC(=O)c1nc(-c2ccnc(C)c2)n2c1CN(C)CCC2)C(C)(C)C [Compound 638, (S)-N-(3,3-dimethyl-1-(methylamino)-1-oxobutan-2-yl)-8-methyl-3-(2-methylpyridin-4-yl)-6,7,8,9-tetrahydro-5H-imidazo[1,5-a][1,4]diazepine-1-carboxamide] | > 10
4 | CNC(=O)[C@@H](NC(=O)c1nc(-c2cccnc2C)n2c1CN(C)CCC2)C(C)(C)C [Compound 640, (S)-N-(3,3-dimethyl-1-(methylamino)-1-oxobutan-2-yl)-8-methyl-3-(2-methylpyridin-3-yl)-6,7,8,9-tetrahydro-5H-imidazo[1,5-a][1,4]diazepine-1-carboxamide] | > 10
5 | CNC(=O)[C@@H](NC(=O)c1nc(-c2cccnc2OC(C)C)n2c1CN(C)CCC2)C(C)(C)C [Compound 641, (S)-N-(3,3-dimethyl-1-(methylamino)-1-oxobutan-2-yl)-3-(2-isopropoxypyridin-3-yl)-8-methyl-6,7,8,9-tetrahydro-5H-imidazo[1,5-a][1,4]diazepine-1-carboxamide] | > 10
6 | CNC(=O)[C@@H](NC(=O)c1nc(-c2ccc(=O)[nH]c2)n2c1CN(C)CCC2)C(C)(C)C [Compound 645, (S)-N-(3,3-dimethyl-1-(methylamino)-1-oxobutan-2-yl)-8-methyl-3-(6-oxo-1,6-dihydropyridin-3-yl)-6,7,8,9-tetrahydro-5H-imidazo[1,5-a][1,4]diazepine-1-carboxamide] | > 10
7 | CNC(=O)[C@@H](NC(=O)c1nc(-c2ccccc2N)n2c1CN(C)CCC2)C(C)(C)C [Compound 646, (S)-3-(2-aminophenyl)-N-(3,3-dimethyl-1-(methylamino)-1-oxobutan-2-yl)-8-methyl-6,7,8,9-tetrahydro-5H-imidazo[1,5-a][1,4]diazepine-1-carboxamide] | > 10
8 | CNC(=O)[C@@H](NC(=O)c1nc(-c2ccccc2C)n2c1CN(C)CCC2)C(C)(C)C [Compound 647, (S)-N-(3,3-dimethyl-1-(methylamino)-1-oxobutan-2-yl)-8-methyl-3-o-tolyl-6,7,8,9-tetrahydro-5H-imidazo[1,5-a][1,4]diazepine-1-carboxamide] | > 10
9 | CNC(=O)[C@@H](NC(=O)c1nc(-c2ccc(OC(C)C)cc2)n2c1CN(C)CCC2)C(C)(C)C [Compound 649, (S)-N-(3,3-dimethyl-1-(methylamino)-1-oxobutan-2-yl)-3-(4-isopropoxyphenyl)-8-methyl-6,7,8,9-tetrahydro-5H-imidazo[1,5-a][1,4]diazepine-1-carboxamide] | > 10
10 | CNC(=O)[C@@H](NC(=O)c1nc(-c2cc(F)c(F)cc2OC(C)C)n2c1CN(C)CCC2)C(C)(C)C [Compound 651, (S)-3-(4,5-difluoro-2-isopropoxyphenyl)-N-(3,3-dimethyl-1-(methylamino)-1-oxobutan-2-yl)-8-methyl-6,7,8,9-tetrahydro-5H-imidazo[1,5-a][1,4]diazepine-1-carboxamide] | > 10
11 | CNC(=O)[C@@H](NC(=O)c1nc(-c2cccc(F)c2OC)n2c1CN(C)CCC2)C(C)(C)C [Compound 657, (S)-N-(3,3-dimethyl-1-(methylamino)-1-oxobutan-2-yl)-3-(3-fluoro-2-methoxyphenyl)-8-methyl-6,7,8,9-tetrahydro-5H-imidazo[1,5-a][1,4]diazepine-1-carboxamide] | > 10
12 | CNC(=O)[C@@H](NC(=O)c1nc(-c2cccc3c2OC(F)(F)O3)n2c1CN(C)CCC2)C(C)(C)C [Compound 682, (S)-3-(2,2-difluorobenzo[d][1,3]dioxol-4-yl)-N-(3,3-dimethyl-1-(methylamino)-1-oxobutan-2-yl)-8-methyl-6,7,8,9-tetrahydro-5H-imidazo[1,5-a][1,4]diazepine-1-carboxamide] | > 10
13 | CNC(=O)[C@@H](NC(=O)c1nc(-c2ccc(C(C)=O)s2)n2c1CN(C)CCC2)C(C)(C)C [Compound 704, (S)-3-(5-acetylthiophen-2-yl)-N-(3,3-dimethyl-1-(methylamino)-1-oxobutan-2-yl)-8-methyl-6,7,8,9-tetrahydro-5H-imidazo[1,5-a][1,4]diazepine-1-carboxamide] | > 10
14 | CNC(=O)[C@@H](NC(=O)c1nc(-c2ccc(=O)n(C)c2)n2c1CN(C)CCC2)C(C)(C)C [Compound 708, (S)-N-(3,3-dimethyl-1-(methylamino)-1-oxobutan-2-yl)-8-methyl-3-(1-methyl-6-oxo-1,6-dihydropyridin-3-yl)-6,7,8,9-tetrahydro-5H-imidazo[1,5-a][1,4]diazepine-1-carboxamide] | > 10
15 | CNC(=O)[C@@H](NC(=O)c1nc(-c2cnn(-c3ccccc3)c2C)n2c1CN(C)CCC2)C(C)(C)C [Compound 709, (S)-N-(3,3-dimethyl-1-(methylamino)-1-oxobutan-2-yl)-8-methyl-3-(5-methyl-1-phenyl-1H-pyrazol-4-yl)-6,7,8,9-tetrahydro-5H-imidazo[1,5-a][1,4]diazepine-1-carboxamide] | > 10
16 | CNC(=O)[C@@H](NC(=O)c1nc(-c2cnn(CC(C)C)c2)n2c1CN(C)CCC2)C(C)(C)C [Compound 710, (S)-N-(3,3-dimethyl-1-(methylamino)-1-oxobutan-2-yl)-3-(1-isobutyl-1H-pyrazol-4-yl)-8-methyl-6,7,8,9-tetrahydro-5H-imidazo[1,5-a][1,4]diazepine-1-carboxamide] | > 10
17 | CNC(=O)[C@@H](NC(=O)c1nc(-c2cc(F)c(F)cc2F)n2c1CN(c1cncc(Cl)n1)CCC2)C(C)(C)C [Compound 718, (S)-8-(6-chloropyrazin-2-yl)-N-(3,3-dimethyl-1-(methylamino)-1-oxobutan-2-yl)-3-(2,4,5-trifluorophenyl)-6,7,8,9-tetrahydro-5H-imidazo[1,5-a][1,4]diazepine-1-carboxamide] | > 10
18 | CNC(=O)C1(NC(=O)c2nc(-c3cc(F)c(F)cc3F)n3c2CN(C)CCC3)CCCC1 [Compound 719, 8-methyl-N-(1-(methylcarbamoyl)cyclopentyl)-3-(2,4,5-trifluorophenyl)-6,7,8,9-tetrahydro-5H-imidazo[1,5-a][1,4]diazepine-1-carboxamide] | > 10
19 | CN1CCCn2c(-c3cc(Cl)ccc3F)nc(C(=O)NC(CN3CCCC3)C(C)(C)C)c2C1 (stereo not shown) [Compound 720, 3-(5-chloro-2-fluorophenyl)-N-(3,3-dimethyl-1-(pyrrolidin-1-yl)butan-2-yl)-8-methyl-6,7,8,9-tetrahydro-5H-imidazo[1,5-a][1,4]diazepine-1-carboxamide] | > 10
